Measured values from US20140017223A1, “Pharmaceutical Compositions Comprising A Pancreatic Enzyme Preparation With Viral Infectivity Reduced Below A Significant Level And Methods Of Preparing And Using The Same” (Aptalis Pharma Canada Inc., priority 2010, published 2014).

How the values were obtained:
[1] = test system: EMCV; assay: Inactivation of spiked EMCV in pancrelipase by BPL, TCID50 titration on VERO cells (Example 2); format: cell-based, porcine encephalomyocarditis virus (EMCV); conditions: 48 h, 20° C.; for Detected EMCV titer: 0*=below detection limit of 10^3 TCID50/g
Procedure: Four different lots of pancrelipase powders were dissolved in 100 mM Tris, pH=8.3, at a concentration of 100 mg/ml. EMCV virus stock (prepared by Meng X J, Paul P S, Vaughn E M, Zimmerman J J. Development of a radiolabeled nucleic acid probe for the detection of encephalomyocarditis virus of swine. J Vet Diagn Invest. 1993 5:254-8) was mixed with the pancrelipase using slow shaking at room temperature for one day such that the final concentration of pancrelipase was 100 mg/ml. Aliquots were taken from the EMCV-spiked pancrelipase stocks and each was incubated with different concentrations of BPL (available from Sigma-Aldrich, St. Louis, Mo.) (except the control) for 48 hours at room temperature (20° C.). The level of inactivation was measured by the titration of EMCV infectivity on VERO cells using serial dilutions and determining the TCID50 as described in Hierholzer, J. C., Killington, R. A., 1996. Virus isolation and quantitation. In: Mahy, B. W. J., Kangro, H. O. (Eds.), Virology methods manual. Academic Press, London, pp. 25-46.

[2] = test system: PPV; assay: Inactivation of PPV by BPL in higher concentration of PEP (200 mg/ml), time course, thiosulfate quench (Example 5); format: cell-based, porcine parvovirus (PPV); conditions: 200 mg PEP/ml
Procedure: The focus of this experiment was to measure the effect of increased PEP concentration on the efficiency of the inactivation procedure and to evaluate lower concentration ranges of BPL.
PPV virus stock (prepared using standard protocols (Arella et al., Physicochemical properties, production, and purification of parvoviruses. 1990, In Tijssen, P. (ed.), CRC handbook of parvoviruses. Boca Raton, Fla.: CRC Press, 11-30)) was diluted with water and this solution (containing 1.42×10^10 FFID50 PPV viruses) was used to suspend the 0.5 gram of PEP powder to yield a final concentration of 200 mg PEP/ml.
Tubes were incubated for one hour at 25° C. before the addition of BPL. BPL was added either directly to the PEP solution (for a final concentration of 0.4 vol. %) or it was first diluted ten and hundred times for final concentrations of 0.04 vol. % and 0.004 vol. %, respectively. After the addition of BPL, the solution was further mixed and incubated at 25° C. for a predetermined period (1, 2, 4, 6, or 8 hours). A sodium thiosulfate solution was freshly prepared on the day of each inactivation experiments. After the period expired for the BPL inactivation, sodium thiosulfate was added to the PEP solution, mixed intensively and incubated at least 6 hours at 4° C. to quench the excess BPL. After this step the infectivity titration experiments as described in U.S. Patent Publication No. 2009/0226414 were performed. All experiments were done using three parallel samples for each time point.

[3] = test system: PPV; assay: Inactivation of PPV by 0.8% (v/v) BPL at 4° C. (Example 6); format: cell-based, porcine parvovirus (PPV); conditions: 0.8% BPL (4 h) at 4° C.
Procedure: Samples prepared as in Example 1 were treated for four hours with 0.8% (v/v) BPL at 4° C.

[4] = test system: lipase; assay: Lipase activity of pancrelipase after BPL treatment, freezing and lyophilization (USP 31 method); format: biochemical; conditions: for Loss of Lipase Activity: pancrelipase, freezing, lyophilization, precision 5-10%
Procedure: (§1) Enzymatic activity for the enzymes of a PEP (e.g., proteases, lipases, and amylases) can be determined, for example, by using the United States Pharmacopeia (USP) monographed methods (The United States Pharmacopeia and the National Formulary (USP 31/NF 26). 2008. Rockville (MD): United States Pharmacopeial Convention, Inc.).
(§2) The samples c-d from all the experiments were tested for lipase, protease, and amylase enzymatic activity using USP 31 monographed methods. See Example 11 and Table 11.
(§3) Table 11 presents the lipase, protease, and amylase activity for aliquots of the pancrelipase after BPL treatment for 30 min at 25° C. followed by freezing and lyophilization (same treatment as for samples in Example 10).

[5] = test system: amylase; assay: Amylase activity of pancrelipase after BPL treatment, freezing and lyophilization (USP 31 method); format: biochemical; conditions: for Loss of Amylase Activity: pancrelipase, freezing, lyophilization, precision 5-10%
Procedure: as §1, §2, §3

[6] = lyophilized samples treated with 0.4% BPL and 0.8% BPL

O=C1CCO1 [BPL, Beta-propiolactone]
EMCV Titer reduction ([1]; PEP #1, 0.1% (v/v) BPL): 1.33 × 10^2 TCID50/g
Detected EMCV titer ([1]; PEP #1, 0.1% (v/v) BPL): 4.22 × 10^5 TCID50/g
EMCV Titer reduction ([1]; PEP #1, 0.2% (v/v) BPL): >10^5 TCID50/g
Detected EMCV titer ([1]; PEP #1, 0.2% (v/v) BPL): < 0* TCID50/g
EMCV Titer reduction ([1]; PEP #1, 0.4% (v/v) BPL): >10^5 TCID50/g
Detected EMCV titer ([1]; PEP #1, 0.4% (v/v) BPL): < 0* TCID50/g
EMCV Titer reduction ([1]; PEP #1, 0.8% (v/v) BPL): >10^5 TCID50/g
Detected EMCV titer ([1]; PEP #1, 0.8% (v/v) BPL): < 0* TCID50/g
EMCV Titer reduction ([1]; PEP #2, 0.1% (v/v) BPL): 1.78 × 10^2 TCID50/g
Detected EMCV titer ([1]; PEP #2, 0.1% (v/v) BPL): 3.16 × 10^5 TCID50/g
EMCV Titer reduction ([1]; PEP #2, 0.2% (v/v) BPL): >10^5 TCID50/g
Detected EMCV titer ([1]; PEP #2, 0.2% (v/v) BPL): < 0* TCID50/g
EMCV Titer reduction ([1]; PEP #2, 0.4% (v/v) BPL): >10^5 TCID50/g
Detected EMCV titer ([1]; PEP #2, 0.4% (v/v) BPL): < 0* TCID50/g
EMCV Titer reduction ([1]; PEP #2, 0.8% (v/v) BPL): >10^5 TCID50/g
Detected EMCV titer ([1]; PEP #2, 0.8% (v/v) BPL): < 0* TCID50/g
EMCV Titer reduction ([1]; PEP #3, 0.1% (v/v) BPL): >10^5 TCID50/g
Detected EMCV titer ([1]; PEP #3, 0.1% (v/v) BPL): < 0* TCID50/g
EMCV Titer reduction ([1]; PEP #3, 0.2% (v/v) BPL): >10^5 TCID50/g
Detected EMCV titer ([1]; PEP #3, 0.2% (v/v) BPL): < 0* TCID50/g
EMCV Titer reduction ([1]; PEP #3, 0.4% (v/v) BPL): >10^5 TCID50/g
Detected EMCV titer ([1]; PEP #3, 0.4% (v/v) BPL): < 0* TCID50/g
EMCV Titer reduction ([1]; PEP #3, 0.8% (v/v) BPL): >10^5 TCID50/g
Detected EMCV titer ([1]; PEP #3, 0.8% (v/v) BPL): < 0* TCID50/g
EMCV Titer reduction ([1]; PEP #4, 0.1% (v/v) BPL): 1.33 × 10^3 TCID50/g
Detected EMCV titer ([1]; PEP #4, 0.1% (v/v) BPL): 7.50 × 10^4 TCID50/g
EMCV Titer reduction ([1]; PEP #4, 0.2% (v/v) BPL): >10^5 TCID50/g
Detected EMCV titer ([1]; PEP #4, 0.2% (v/v) BPL): < 0* TCID50/g
EMCV Titer reduction ([1]; PEP #4, 0.4% (v/v) BPL): >10^5 TCID50/g
Detected EMCV titer ([1]; PEP #4, 0.4% (v/v) BPL): < 0* TCID50/g
EMCV Titer reduction ([1]; PEP #4, 0.8% (v/v) BPL): >10^5 TCID50/g
Detected EMCV titer ([1]; PEP #4, 0.8% (v/v) BPL): < 0* TCID50/g
Detected PPV titer average ([2]; 0.004% BPL, 1 hr at 25° C.): 8.13 × 10^9 FFID50/g
Log10 of inactivation ([2]; 0.004% BPL, 1 hr at 25° C.): 0.4 Log10
Detected PPV titer average ([2]; 0.004% BPL, 2 hr at 25° C.): 5.96 × 10^9 FFID50/g
Log10 of inactivation ([2]; 0.004% BPL, 2 hr at 25° C.): 0.6 Log10
Detected PPV titer average ([2]; 0.004% BPL, 4 hr at 25° C.): 5.86 × 10^9 FFID50/g
Log10 of inactivation ([2]; 0.004% BPL, 4 hr at 25° C.): 0.58 Log10
Detected PPV titer average ([2]; 0.004% BPL, 6 hr at 25° C.): 6.65 × 10^9 FFID50/g
Log10 of inactivation ([2]; 0.004% BPL, 6 hr at 25° C.): 0.53 Log10
Detected PPV titer average ([2]; 0.004% BPL, 8 hr at 25° C.): 6.68 × 10^9 FFID50/g
Log10 of inactivation ([2]; 0.004% BPL, 8 hr at 25° C.): 0.53 Log10
Detected PPV titer average ([2]; 0.04% BPL, 1 hr at 25° C.): 4.01 × 10^9 FFID50/g
Log10 of inactivation ([2]; 0.04% BPL, 1 hr at 25° C.): 0.7 Log10
Detected PPV titer average ([2]; 0.04% BPL, 2 hr at 25° C.): 2.06 × 10^9 FFID50/g
Log10 of inactivation ([2]; 0.04% BPL, 2 hr at 25° C.): 1.0 Log10
Detected PPV titer average ([2]; 0.04% BPL, 4 hr at 25° C.): 1.54 × 10^9 FFID50/g
Log10 of inactivation ([2]; 0.04% BPL, 4 hr at 25° C.): 1.2 Log10
Detected PPV titer average ([2]; 0.04% BPL, 6 hr at 25° C.): 7.66 × 10^8 FFID50/g
Log10 of inactivation ([2]; 0.04% BPL, 6 hr at 25° C.): 1.5 Log10
Detected PPV titer average ([2]; 0.04% BPL, 8 hr at 25° C.): 4.91 × 10^8 FFID50/g
Log10 of inactivation ([2]; 0.04% BPL, 8 hr at 25° C.): 1.7 Log10
Detected PPV titer average ([2]; 0.4% BPL, 1 hr at 25° C.): 3.06 × 10^7 FFID50/g
Log10 of inactivation ([2]; 0.4% BPL, 1 hr at 25° C.): 2.8 Log10
Detected PPV titer average ([2]; 0.4% BPL, 2 hr at 25° C.): 8.69 × 10^6 FFID50/g
Log10 of inactivation ([2]; 0.4% BPL, 2 hr at 25° C.): 3.4 Log10
Detected PPV titer average ([2]; 0.4% BPL, 4 hr at 25° C.): 2.13 × 10^6 FFID50/g
Log10 of inactivation ([2]; 0.4% BPL, 4 hr at 25° C.): 4.0 Log10
Detected PPV titer average ([2]; 0.4% BPL, 6 hr at 25° C.): 3.26 × 10^5 FFID50/g
Log10 of inactivation ([2]; 0.4% BPL, 6 hr at 25° C.): 4.8 Log10
Detected PPV titer average ([2]; 0.4% BPL, 8 hr at 25° C.): 1.69 × 10^5 FFID50/g
Log10 of inactivation ([2]; 0.4% BPL, 8 hr at 25° C.): 5.1 Log10
Log Reduction ([3]; media Mixture water + IPA): 4.9 Log
Sample infectivity after treatment with BPL ([3]; media Mixture water + IPA): 5.2 FFID50/g log
Log Reduction ([3]; media Water): 5.2 Log
Sample infectivity after treatment with BPL ([3]; media Water): 5.0 FFID50/g log
Lipase activity maintained [4, 6]: maintained the majority
Loss of Lipase Activity ([4]; 0.4% BPL 30 min 25° C.): 19.79%
Loss of Lipase Activity ([4]; 0.8% BPL 30 min 25° C.): 26.40%
Amylase activity maintained [5, 6]: maintained the majority
Loss of Amylase Activity ([5]; 0.4% BPL 30 min 25° C.): 11.40%
Loss of Amylase Activity ([5]; 0.8% BPL 30 min 25° C.): 28.22%
